Test results from US10969387B2, “Compounds, complexes, and methods useful for detecting and/or treating bacterial pathogens” (REGENTS OF THE UNIVERSITY OF MINNESOTA, priority 2015, dated 2021).

Experiments:
FepA = FepA (Escherichia coli, UniProt P05825); details: Thulasiraman et al., J Bacteriol. 1998; cited from earlier work
E. coli [1] = details: Thulasiraman et al., J Bacteriol. 1998; cited from earlier work
E. coli [2] = experiment: Bacteria detection by fluorescence in T media (probe uptake), E. coli; format: cell-based; details: dye not conjugated to an enterobactin analogue; control experiment (FIG. 28)
Description: Sample Processing for Bacteria Detection by Fluorescence in T Media Experiments with Bacteria Genus
• 1. Bacteria is prepared • a. Sub bacteria onto blood agar and incubate overnight • b. Select several colonies and grow overnight in LB media at 37° C. in room air on orbital shaker • c. 100 μl of overnight culture is placed into 100 ml T media, incubated for 5 hours (E. coli, Salmonella, A. baumannii, Klebsiella pneumoniae) or 10 hours (B. subtillus, S. aureus) • d. Quantitate using 1:10 dilution and plating 100 μl of dilutions onto blood agar • 2. Prepare the samples in 1.5 microcentrifuge tubes, vortex, in triplicate • a. For each bacteria • i. 1 ml bacteria+25 μl Tris • ii. 1 ml bacteria+25 μl Probe • b. For each run include controls • i. 1 ml T media+25 μl Tris • ii. […] 24+ hours count colonies on quantitative cultures
The effect of probe chemical structure on response can be seen in FIG. 28 in an increase in fluorescence intensity after incubation of E. coli with Ga-TREN-CAM-C2-OG (example 1), Ga-TREN-GlyCAM-GluCAM-OG (example 2), Ga-3,3-LiCAM-GluCAM-OG (example 4), Ga-2,2-LiCAM-GluCAM (example 5), and the non-targeted dye OREGON GREEN dye. […]
The effect of metal ion on probe uptake can be seen in FIG. 29 in anincrease in fluorescence intensity after incubation of E. coli with Ga-3,3-LiCAM-GluCAM-OG, Fe-3,3-LiCAM-GluCAM, the apo probe, 3,3-LiCAM-GluCAM-OG, and the non-target OREGON GREEN dye. […]

Chain of FepA (P05825 23-746): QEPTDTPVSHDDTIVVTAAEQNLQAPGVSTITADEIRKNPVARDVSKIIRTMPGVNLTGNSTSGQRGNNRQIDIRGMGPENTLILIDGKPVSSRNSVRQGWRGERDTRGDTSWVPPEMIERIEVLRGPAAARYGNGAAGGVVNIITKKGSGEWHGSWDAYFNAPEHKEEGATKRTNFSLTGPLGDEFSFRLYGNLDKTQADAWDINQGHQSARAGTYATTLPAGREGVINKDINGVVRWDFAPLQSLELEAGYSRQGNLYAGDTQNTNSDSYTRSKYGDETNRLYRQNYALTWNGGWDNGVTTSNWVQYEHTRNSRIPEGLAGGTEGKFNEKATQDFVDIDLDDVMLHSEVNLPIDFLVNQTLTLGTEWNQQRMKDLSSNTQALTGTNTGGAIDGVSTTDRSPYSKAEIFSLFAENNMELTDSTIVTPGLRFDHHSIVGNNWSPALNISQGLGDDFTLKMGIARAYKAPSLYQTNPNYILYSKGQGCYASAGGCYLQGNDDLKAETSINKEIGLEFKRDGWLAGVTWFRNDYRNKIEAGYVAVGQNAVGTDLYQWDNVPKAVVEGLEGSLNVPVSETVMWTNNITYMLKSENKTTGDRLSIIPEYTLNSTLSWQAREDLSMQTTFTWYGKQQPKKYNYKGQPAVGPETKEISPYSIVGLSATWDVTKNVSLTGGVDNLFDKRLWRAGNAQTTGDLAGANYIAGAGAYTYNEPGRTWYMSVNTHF

Molecule	recognition by FepA (FepA)	uptake by E. coli (E. coli [1])	accumulation in bacteria (E. coli [2])
O=C(NCCN(CCNC(=O)c1cccc(O)c1O)CCNC(=O)c1cccc(O)c1O)c1cccc(O)c1O [TREN-CAM]	recognized by FepA	actively taken up by E. coli	
OREGON GREEN			does not accumulate in bacteria
